Values after ≈ are worked out from the molar mass of the structure shown. Like-named read-outs stand apart in the source and are kept apart here.
Assays:
[1] = system: Mycobacterium tuberculosis H37Ra; test: Antimycobacterial microdilution broth MIC (resazurin), Mtb H37Ra; assay type: cell-based; conditions: Mycobacterium tuberculosis, H37RA, read-out: MIC Mtb H37Ra
[2] = system: Mycolicibacterium smegmatis DSM 43465; test: Antimycobacterial microdilution broth MIC (resazurin), M. smegmatis; assay type: cell-based; conditions: DSM43465, read-out: MIC M. smegmatis
[3] = system: Mycolicibacterium aurum DSM 43999; test: Antimycobacterial microdilution broth MIC (resazurin), M. aurum; assay type: cell-based; conditions: DSM43999, read-out: MIC M. aurum
HepG2 cell line = test: Cytotoxicity CellTiter 96, HepG2; assay type: cell-based, human; conditions: Homo sapiens, HepG2, 24 h, 24 h incubation; ^c compound precipitated in the testing medium; ^d over the limit of tested concentrations
[4] = system: Staphylococcus aureus CCM 4223, ATCC 29213; test: Antibacterial microdilution broth MIC, SA; assay type: cell-based; conditions: Staphylococcus aureus
[5] = system: Staphylococcus aureus subsp. aureus CCM 4750, ATCC 43300 (MRSA); test: Antibacterial microdilution broth MIC, MRSA; assay type: cell-based; conditions: Staphylococcus aureus
[6] = system: Staphylococcus epidermidis CCM 4418, ATCC 12228; test: Antibacterial microdilution broth MIC, SE; assay type: cell-based
[7] = system: Enterococcus faecalis CCM 4224, ATCC 29212; test: Antibacterial microdilution broth MIC, EF; assay type: cell-based
[8] = system: Escherichia coli CCM 3954, ATCC 25922; test: Antibacterial microdilution broth MIC, EC; assay type: cell-based
[9] = system: Acinetobacter baumannii DSM 30007, ATCC 19606; test: Antibacterial microdilution broth MIC, ACI; assay type: cell-based
[10] = system: Pseudomonas aeruginosa CCM 3955, ATCC 27853; test: Antibacterial microdilution broth MIC, PA; assay type: cell-based
[11] = system: Candida albicans CCM 8320, ATCC 24433; test: Antifungal microdilution broth MIC, CA
[12] = system: Candida krusei CCM 8271, ATCC 6258; test: Antifungal microdilution broth MIC, CK; conditions: Pichia kudriavzevii
[13] = system: Candida parapsilosis CCM 8260, ATCC 22019; test: Antifungal microdilution broth MIC, CP; conditions: Lodderomyces parapsilosis
[14] = system: Candida tropicalis CCM 8264, ATCC 750; test: Antifungal microdilution broth MIC, CT
[15] = system: Aspergillus fumigatus ATCC 204305; test: Antifungal microdilution broth MIC, AF
[16] = system: Lichtheimia corymbifera CCM 8077; test: Antifungal microdilution broth MIC, LC
[17] = system: Trichophyton interdigitale CCM 8377, ATCC 9533; test: Antifungal microdilution broth MIC, TI; conditions: Trichophyton interdigitale
[18] = system: Aspergillus flavus CCM 8363; test: Antifungal microdilution broth MIC, AFla
[19] = system: Klebsiella pneumoniae CCM 4415, ATCC 10031; test: Antibacterial microdilution broth MIC, KP
[20] = ATCC204305, 24 h, read-out: MIC AF 24h
[21] = ATCC204305, 48 h, read-out: MIC AF 48h
[22] = CCM8077, 24 h, read-out: MIC LC 24h
[23] = CCM8077, 48 h, read-out: MIC LC 48h
[24] = CCM8363, 24 h, read-out: MIC AFla 24h
[25] = CCM8363, 48 h, read-out: MIC AFla 48h

Row | SMILES | MIC ([1]; Calculated from MIC (μg/mL)) [µM] | MIC [1] [µg/mL] | MIC [2] [µg/mL] | MIC [3] [µg/mL] | IC50 (HepG2 cell line) [µM] | MIC ([4]; 24 h, read-out: MIC SA 24h) [µM] | MIC ([4]; 48 h, read-out: MIC SA 48h) [µM] | MIC ([5]; 24 h, read-out: MIC MRSA 24h) [µM] | MIC ([5]; 48 h, read-out: MIC MRSA 48h) [µM] | MIC ([6]; 24 h, read-out: MIC SE 24h) [µM] | MIC ([6]; 48 h, read-out: MIC SE 48h) [µM] | MIC ([7]; 24 h, read-out: MIC EF 24h) [µM] | MIC ([7]; 48 h, read-out: MIC EF 48h) [µM] | MIC ([8]; 24 h, read-out: MIC EC 24h) [µM] | MIC ([8]; 48 h, read-out: MIC EC 48h) [µM] | MIC ([9]; 24 h, read-out: MIC ACI 24h) [µM] | MIC ([9]; 48 h, read-out: MIC ACI 48h) [µM] | MIC ([10]; 24 h, read-out: MIC PA 24h) [µM] | MIC ([10]; 48 h, read-out: MIC PA 48h) [µM] | MIC ([11]; 24 h, read-out: MIC CA 24h) [µM] | also measured
1 | COc1ccc(CC(=O)Nc2ccc(Cl)cn2)cc1 [Compound 11, 2-(4-methoxyphenyl)-N-(5-chloropyridin-2-yl)acetamide] | > 1800 | > 500 | > 500 | > 500 | 399 | 250 (≈ 69.2 µg/mL) | 500 (≈ 138 µg/mL) | > 500 | > 500 | > 500 | > 500 | > 500 | > 500 | > 500 | > 500 | > 500 | > 500 | > 500 | > 500 | > 500 | MIC ([11]; 48 h, read-out: MIC CA 48h): > 500 µM; MIC ([12]; 24 h, read-out: MIC CK 24h): > 500 µM; MIC ([12]; 48 h, read-out: MIC CK 48h): > 500 µM; MIC ([13]; 24 h, read-out: MIC CP 24h): > 500 µM; MIC ([13]; 48 h, read-out: MIC CP 48h): > 500 µM; MIC ([14]; 24 h, read-out: MIC CT 24h): > 500 µM; MIC ([14]; 48 h, read-out: MIC CT 48h): > 500 µM; MIC [15, 20]: > 500 µM; MIC [15, 21]: > 500 µM; MIC [16, 22]: > 500 µM; MIC [16, 23]: > 500 µM; MIC ([17]; 72 h, read-out: MIC TI 72h): > 500 µM; MIC ([17]; 120 h, read-out: MIC TI 120h): > 500 µM; MIC [18, 24]: > 500 µM; MIC [18, 25]: > 500 µM; MIC KP 24h [19]: > 500 µM; MIC KP 48h [19]: > 500 µM
2 | O=C(Cc1ccccc1Cl)Nc1ccccn1 [Compound 13, 2-(2-chlorophenyl)-N-(pyridin-2-yl)acetamide] | 253 | 62.5 | > 500 | 250 (≈ 1010 µM) | 755 | > 500 | > 500 | > 500 | > 500 | 500 (≈ 123 µg/mL) | 500 (≈ 123 µg/mL) | > 500 | > 500 | > 500 | > 500 | > 500 | > 500 | > 500 | > 500 | > 500 | MIC ([11]; 48 h, read-out: MIC CA 48h): > 500 µM; MIC ([12]; 24 h, read-out: MIC CK 24h): > 500 µM; MIC ([12]; 48 h, read-out: MIC CK 48h): > 500 µM; MIC ([13]; 24 h, read-out: MIC CP 24h): > 500 µM; MIC ([13]; 48 h, read-out: MIC CP 48h): > 500 µM; MIC ([14]; 24 h, read-out: MIC CT 24h): > 500 µM; MIC ([14]; 48 h, read-out: MIC CT 48h): > 500 µM; MIC [15, 20]: > 500 µM; MIC [15, 21]: > 500 µM; MIC [16, 22]: > 500 µM; MIC [16, 23]: > 500 µM; MIC ([17]; 72 h, read-out: MIC TI 72h): 500 µM (≈ 123 µg/mL); MIC ([17]; 120 h, read-out: MIC TI 120h): 500 µM (≈ 123 µg/mL); MIC [18, 24]: > 500 µM; MIC [18, 25]: > 500 µM; MIC KP 24h [19]: > 500 µM; MIC KP 48h [19]: > 500 µM
3 | O=C(Cc1ccccc1Cl)Nc1ccc(Cl)cn1 [Compound 14, 2-(2-chlorophenyl)-N-(5-chloropyridin-2-yl)acetamide] | > 1780 | > 500 | > 500 | > 500 | > 50 | > 500 | > 500 | > 500 | > 500 | > 500 | > 500 | > 500 | > 500 | > 500 | > 500 | > 500 | > 500 | > 500 | > 500 | > 500 | MIC ([11]; 48 h, read-out: MIC CA 48h): > 500 µM; MIC ([12]; 24 h, read-out: MIC CK 24h): > 500 µM; MIC ([12]; 48 h, read-out: MIC CK 48h): > 500 µM; MIC ([13]; 24 h, read-out: MIC CP 24h): > 500 µM; MIC ([13]; 48 h, read-out: MIC CP 48h): > 500 µM; MIC ([14]; 24 h, read-out: MIC CT 24h): > 500 µM; MIC ([14]; 48 h, read-out: MIC CT 48h): > 500 µM; MIC [15, 20]: > 500 µM; MIC [15, 21]: > 500 µM; MIC [16, 22]: > 500 µM; MIC [16, 23]: > 500 µM; MIC ([17]; 72 h, read-out: MIC TI 72h): > 500 µM; MIC ([17]; 120 h, read-out: MIC TI 120h): > 500 µM; MIC [18, 24]: > 500 µM; MIC [18, 25]: > 500 µM; MIC KP 24h [19]: > 500 µM; MIC KP 48h [19]: > 500 µM
